Results taken from patent US9873693B2 (Sunesis Pharmaceuticals, Inc., priority 2006, dated 2018).
Read-outs that look alike come from different tables or passages of the source.

How the values were obtained:
phospho-akt (Thr308) = phospho-akt (Thr308) MSD ELISA in PC-3 cells; format: cell-based; conditions: for inhibition at 1 µM / inhibition at 10 µM: read-out: Percent Inhibition of phospho-Akt (308) By MSD ELISA
Description: PC-3 cells were harvested by trypsin and counted. Cells were plated in coated 96-well flat bottom plates (plate 15,000 cells/well in 100 ul growth media (10% FBS, 1× pen-strep) an place in an incubator overnight.
Subject inhibitors were stocked at 50 mM, then diluted to 30 mM (4.8 μl cpd plus […] DMSO) in 100% DMSO. Three-fold dilutions were performed from 30 mM stock. (4 μl into 8 ul 100% DMSO). Aliquots of 1.0 μl of inhibitor solution were transferred into SF Medium (using deep well block).
Control wells were prepared as follows. For DMSO high controls, 1.0 μl of 100% DMSO was added into 1.0 ml SF.
MSD plates were blocked for 1 hour by adding 150 μl of Blocking Solution (3% BSA) to each well. The MSD plates were washed 4× with TBST, and 50 μl lysates were transferred to MSD plate and place on plate shaker shake at 4 degrees O/N, light shaking (speed 3.5). The plate was washed 4× with TBST.
25 μl of Ab detection solution was added to each well. The plate was sealed and incubated 1 hr RT, light shaking (speed 3.5). The plate was washed 4 times with TBST. 150 μl of Read Buffer was added (5 mls 4×MSD Read Buffer+15 mls water). Finally the plate was read immediately on the MSD plate reader.

phosphorylated PDK1 = phosphorylated PDK1 (Homo sapiens (Human), UniProt O15530); assay: PDK1 kinase assay (coupled PDK1/AKT/FAM-crosstide, IMAP); format: biochemical; conditions: 0.5 nM phosphorylated PDK1, 24 μM ATP; read-out: Inhibition of phospo-PDK1 in vitro IC50
Sequence of phosphorylated PDK1 (O15530 51-360): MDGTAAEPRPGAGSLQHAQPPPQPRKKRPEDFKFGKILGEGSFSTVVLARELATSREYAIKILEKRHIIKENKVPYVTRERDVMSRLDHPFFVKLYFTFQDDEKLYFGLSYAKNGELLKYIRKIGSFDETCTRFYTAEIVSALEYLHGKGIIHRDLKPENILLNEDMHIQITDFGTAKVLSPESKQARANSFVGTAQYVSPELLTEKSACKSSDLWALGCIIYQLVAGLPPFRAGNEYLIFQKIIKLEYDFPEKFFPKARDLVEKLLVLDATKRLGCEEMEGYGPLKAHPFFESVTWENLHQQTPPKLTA

[1] = Homo sapiens, PC-3, 2 h, PC-3 cells, 2 hours, no serum, read-out: Reduction of Cellular Levels of Akt p308 By MSD ELISA (EC50 μM)
[2] = Homo sapiens, PC-3, 2 h, PC-3 cells, 2 hours, no serum, read-out: Inhibition of P308 Akt in cells using MSD EC50
[3] = Homo sapiens, PC-3, 2 h, read-out: Inhibition of P308 Akt in cells using MSD EC50

SMILES	IC50 (phosphorylated PDK1) [nM]	EC50 (phospho-akt (Thr308); [2]) [µM]	further results
O=C(NC(C(=O)O)c1ccc(-c2c[nH]c3ncccc23)s1)c1cccn(Cc2ccc(F)c(F)c2)c1=O (stereo not drawn) [Cpd 335]	500 to 10000	–	EC50 (phospho-akt (Thr308); [1]): > 5 µM
O=C(Nc1cccc2ccc(-c3c[nH]c4ncccc34)cc12)c1cccn(Cc2ccc(F)c(F)c2)c1=O [Cpd 35]	< 500	> 5	EC50 (phospho-akt (Thr308); [1]): < 1 µM
C[C@@H](c1ccc(Cl)cc1)n1cc(Cl)cc(C(=O)NCc2noc(-c3c[nH]c4ncccc34)n2)c1=O [Cpd 315]	< 500	< 1	inhibition at 1 µM (phospho-akt (Thr308); Homo sapiens, PC-3 cells): 25 to 75%; inhibition at 10 µM (phospho-akt (Thr308); Homo sapiens, PC-3 cells): > 75%
NCc1cnc2[nH]cc(-c3cccc(CNC(=O)c4cccn(Cc5ccc(F)c(F)c5)c4=O)c3)c2c1 [Cpd 37]	< 500	–	EC50 (phospho-akt (Thr308); PC-3 cells, 2 hours, no serum, read-out: Inhibition of P308 Akt in cells using MSD EC50): 1 to 5 µM
O=C(NCc1cccc(-c2n[nH]c3ncccc23)c1)c1cccn(Cc2ccc(F)c(F)c2)c1=O [Cpd 6]	< 500	1 to 5	inhibition at 1 µM (phospho-akt (Thr308); Homo sapiens, PC-3 cells): 25 to 75%; inhibition at 10 µM (phospho-akt (Thr308); Homo sapiens, PC-3 cells): 25 to 75%
O=C(NCc1cccc(-c2c[nH]c3ncc(Br)cc23)c1)c1cccn(Cc2ccc(F)c(F)c2)c1=O [Cpd 330]	< 500	1 to 5	–
O=C(NC(COc1ccc2[nH]c(=O)[nH]c2c1)c1ccc(O)cc1)c1cccn(Cc2cc(F)c(F)c(F)c2)c1=O (stereo not drawn) [Cpd 188]	< 500	1 to 5	–
NC(=O)c1cnc2[nH]cc(-c3cccc(CNC(=O)c4cccn(Cc5ccc(F)c(F)c5)c4=O)c3)c2c1 [Cpd 26]	< 500	< 1	EC50 (phospho-akt (Thr308); [1]): < 1 µM
O=C1Nc2cc(/C=C/CNC(=O)c3cccn(Cc4cc(F)c(F)c(F)c4)c3=O)ccc2/C1=C/c1nccs1 [Cpd 203]	< 500	1 to 5	–
O=C1Nc2cc(/C=C/CNC(=O)c3cccn(Cc4cc(F)c(F)c(F)c4)c3=O)ccc2/C1=C/c1cnc[nH]1 [Cpd 212]	< 500	1 to 5	–
N#Cc1cnc2[nH]cc(-c3cccc(CNC(=O)c4cccn(Cc5ccc(F)c(F)c5)c4=O)c3)c2c1 [Cpd 244]	< 500	< 1	EC50 (phospho-akt (Thr308); [1]): < 1 µM
O=C(N[C@@H](COc1ccc2[nH]c(=O)[nH]c2c1)c1ccsc1)c1cccn(Cc2ccc(F)c(F)c2)c1=O [Cpd 190]	< 500	< 1	–
O=C(NCc1cc(-c2c[nH]c3ncccc23)cc(CO)n1)c1cccn(Cc2ccc(F)c(F)c2)c1=O [Cpd 196]	< 500	1 to 5	–
CN(C)CCOc1cc(CNC(=O)c2cccn(Cc3ccc(F)c(F)c3)c2=O)cc(-c2c[nH]c3ncccc23)c1 [Cpd 60]	< 500	1 to 5	–
O=C1Nc2cc(/C=C/CNC(=O)c3cccn(Cc4cc(F)c(F)c(F)c4)c3=O)ccc2/C1=C\c1ccccc1 [Cpd 209]	< 500	> 5	–
O=C(NCc1cccc(-c2c[nH]c3nccc(Cl)c23)c1)c1cccn(Cc2ccc(F)c(F)c2)c1=O [Cpd 50]	< 500	1 to 5	–
O=C(NCc1cccc(-c2c[nH]c3ncc(-c4cccnc4)cc23)c1)c1cccn(Cc2ccc(F)c(F)c2)c1=O [Cpd 47]	< 500	< 1	–
CNC(=O)c1cnc2[nH]cc(-c3cccc(CNC(=O)c4cccn(Cc5ccc(F)c(F)c5)c4=O)c3)c2c1 [Cpd 239]	< 500	1 to 5	EC50 (phospho-akt (Thr308); [1]): < 1 µM
O=C(NCc1cccc(-c2c[nH]c3ncc(-c4ccsc4)cc23)c1)c1cccn(Cc2ccc(F)c(F)c2)c1=O [Cpd 331]	< 500	1 to 5	–
O=C(N[C@@H](COc1ccc2[nH]c(=O)[nH]c2c1)c1cccs1)c1cccn(Cc2ccc(F)c(F)c2)c1=O [Cpd 192]	< 500	< 1	–
O=C(NCc1cccc(-c2c[nH]c3ncc(-c4cccs4)cc23)c1)c1cccn(Cc2ccc(F)c(F)c2)c1=O [Cpd 51]	< 500	1 to 5	–
CC(C)Oc1cc(CNC(=O)c2cccn(Cc3ccc(F)c(F)c3)c2=O)cc(-c2c[nH]c3ncc(F)cc23)c1 [Cpd 98]	< 500	1 to 5	–

SMILES	IC50 (phosphorylated PDK1) [nM]	EC50 (phospho-akt (Thr308); [2]) [µM]	further results
O=C(NCc1cc(-c2c[nH]c3ncccc23)ccn1)c1cccn(Cc2ccc(F)c(F)c2)c1=O [Cpd 164]	< 500	< 1	–
O=C(NCc1cccc(-c2c[nH]c3ncc(-c4ccoc4)cc23)c1)c1cccn(Cc2ccc(F)c(F)c2)c1=O [Cpd 53]	< 500	< 1	–
O=C(NCc1cc(-c2c[nH]c3ncccc23)cc(C(F)F)n1)c1cccn(Cc2ccc(F)c(F)c2)c1=O [Cpd 208]	< 500	< 1	–
CCNC(=O)C[C@@H](NC(=O)c1cccn(Cc2ccc(F)c(F)c2)c1=O)c1ccc(-c2c[nH]c3ncccc23)s1 [Cpd 31]	< 500	1 to 5	EC50 (phospho-akt (Thr308); [1]): 1 to 5 µM
NC(=O)c1cnc2[nH]cc(-c3ccc(CNC(=O)c4cccn(Cc5ccc(F)c(F)c5)c4=O)s3)c2c1 [Cpd 39]	< 500	< 1	EC50 (phospho-akt (Thr308); [1]): < 1 µM
N#Cc1cc(-c2c[nH]c3ncccc23)cc(CNC(=O)c2cccn(Cc3ccc(F)c(F)c3)c2=O)n1 [Cpd 191]	< 500	–	EC50 (phospho-akt (Thr308); [3]): < 1 µM
O=C(N[C@@H](COc1ccc2[nH]c(=O)[nH]c2c1)c1ccccc1)c1cccn(Cc2cc(F)c(F)c(F)c2)c1=O [Cpd 174]	< 500	–	EC50 (phospho-akt (Thr308); [3]): 1 to 5 µM
C[Si](C)(C)CCOCn1nc(NC(=O)c2cccn(Cc3ccc(F)c(F)c3)c2=O)c2cc(-c3c[nH]c4ncccc34)ccc21 [Cpd 36]	< 500	–	EC50 (phospho-akt (Thr308); [3]): > 5 µM; EC50 (phospho-akt (Thr308); Homo sapiens, PC-3, 2 h, read-out: Reduction of Cellular Levels of Akt p308 By MSD ELISA (EC50 μM)): > 5 µM
CCNC(=O)c1cnc2[nH]cc(-c3ccc(CNC(=O)c4cccn(Cc5ccc(F)c(F)c5)c4=O)s3)c2c1 [Cpd 41]	< 500	< 1	EC50 (phospho-akt (Thr308); [1]): < 1 µM
O=C(NC(COc1ccc2[nH]c(=O)[nH]c2c1)c1ccc(F)cc1)c1cccn(Cc2ccc(F)c(F)c2)c1=O (stereo not drawn) [Cpd 147]	< 500	< 1	EC50 (phospho-akt (Thr308); [1]): < 1 µM
O=C(NCc1cccc(-c2c[nH]c3cccnc23)c1)c1cccn(Cc2ccc(F)c(F)c2)c1=O [Cpd 241]	500 to 10000	–	inhibition at 1 µM (phospho-akt (Thr308); Homo sapiens, PC-3 cells): < 25%; inhibition at 10 µM (phospho-akt (Thr308); Homo sapiens, PC-3 cells): 25 to 75%
O=C(NCc1cc(-c2c[nH]c3ncccc23)ccc1F)c1cccn(Cc2ccc(F)c(F)c2)c1=O [Cpd 278]	< 500	–	inhibition at 1 µM (phospho-akt (Thr308); Homo sapiens, PC-3 cells): < 25%; inhibition at 10 µM (phospho-akt (Thr308); Homo sapiens, PC-3 cells): 25 to 75%
O=C1Nc2cc(/C=C/CNC(=O)c3cccn(Cc4cc(F)c(F)c(F)c4)c3=O)ccc2/C1=C\c1cccnc1 [Cpd 194]	< 500	< 1	–
O=C(NCc1cccc(-c2c[nH]c3ncccc23)n1)c1cccn(Cc2ccc(F)c(F)c2)c1=O [Cpd 4]	< 500	1 to 5	inhibition at 1 µM (phospho-akt (Thr308); Homo sapiens, PC-3 cells): 25 to 75%; inhibition at 10 µM (phospho-akt (Thr308); Homo sapiens, PC-3 cells): > 75%
O=C1Nc2cc(/C=C/CNC(=O)c3cccn(Cc4cc(F)c(F)c(F)c4)c3=O)ccc2/C1=C\c1ccc(O)cc1 [Cpd 201]	< 500	< 1	–
O=C(NCc1cccc(-c2c[nH]c3ncccc23)c1)c1cccn(Cc2ccc(F)c(F)c2)c1=O [Cpd 126]	< 500	1 to 5	EC50 (phospho-akt (Thr308); [1]): < 1 µM
COCCNC(=O)C[C@@H](NC(=O)c1cccn(Cc2ccc(F)c(F)c2)c1=O)c1ccc(-c2c[nH]c3ncccc23)s1 [Cpd 34]	< 500	1 to 5	EC50 (phospho-akt (Thr308); [1]): 1 to 5 µM
O=C1Nc2cc(/C=C/CNC(=O)c3cc(Cl)cn(Cc4cc(F)c(F)c(F)c4)c3=O)ccc2/C1=C/c1ncc[nH]1 [Cpd 197]	< 500	< 1	–
O=C1Nc2cc(/C=C/CNC(=O)c3cccn(Cc4cc(F)c(F)c(F)c4)c3=O)ccc2/C1=C/c1cccs1 [Cpd 198]	< 500	1 to 5	–
O=C(NC(COc1ccc2[nH]c(=O)[nH]c2c1)c1ccc(OCc2ccccc2)cc1)c1cccn(Cc2cc(F)c(F)c(F)c2)c1=O (stereo not drawn) [Cpd 186]	< 500	–	EC50 (phospho-akt (Thr308); [3]): > 5 µM
CC(=O)Oc1ccc(C(COc2ccc3[nH]c(=O)[nH]c3c2)NC(=O)c2cccn(Cc3cc(F)c(F)c(F)c3)c2=O)cc1 (stereo not drawn) [Cpd 189]	< 500	< 1	–
